Article PMC5033595, “The Effectiveness of Natural Diarylheptanoids against Trypanosoma cruzi: Cytotoxicity, Ultrastructural Alterations and Molecular Modeling Studies” (PLoS ONE, 2016)
Where two headings read alike, the source gives them in different places. Values belong to the compound of their own block, whether it stands above or below them.

Tests used:
[1] = tested on: T. cruzi epimastigotes (Dm28c strain); test: Anti-epimastigote effect (proliferation/survival, counting of viable forms); format: cell-based, Trypanosoma cruzi; conditions: for activity on proliferation/survival of epimastigotes (in words): 100, 50, 25 and 2 μM; for IC50: read-out: IC50 T. cruzi
Protocol: The four natural compounds (CUR, DMC, BDMC and CC) were evaluated on the proliferation/survival of T. cruzi epimastigotes (Dm28c strain) in four different concentrations (100, 50, 25 and 2 μM). The parasites were cultivated for 7 days in BHI (Brain Heart Infusion) medium supplemented with 10% (v/v) fetal bovine serum. Controls were incubated solely and with 0.02% DMSO and the cultures were readily incubated with the natural compounds. Mobile epimastigote forms were considered as viable forms, and were counted on Neubauer chambers using phase contrast microscopy.
Epimastigotes of T. cruzi (Dm28c strain) were cultured at 27°C in Bacto™ Brain Heart infusion (BHI, Becton Dickinson Company, USA) supplemented with 10 μg.mL^-1 hemin, 0.02 g.L^-1 folic acid (from Sigma-Aldrich, USA) and 10% (v/v) of heat inactivated fetal bovine serum (FCS, Gibco/Life technologies).
Epimastigotes forms of T. cruzi, Dm28c strain (2x10^5 cells.mL^-1), were grown for 7 days in BHI culture medium at 26°C. Some cultures were treated with curcumin (CUR), demethoxycurcumin (DMC), bisdemethoxycurcumin (BDMC) or cyclocurcumin (CC) at concentrations of 100, 50, 25 and 2 μM. Viable forms were counted in Neubauer chambers under phase contrast microscopy using 40X objectives. Data representing three independent experiments.
Supplementary file pone.0162926.s002.tif: S2 Fig T. cruzi epimastigotes (Dm28c strain) were cultivated for 7 days in BHI (Brain Heart Infusion) culture medium supplemented with hemin, folic acid and 10% fetal bovine serum at 26°C, and readily treated with CUR, DMC, BDMC and CC at the indicated concentrations ranging from 2 to 100μM. Viable forms were counted on Neubauer chambers under phase microscopy at the seventh day. The data presented were obtained from three representative independent experiments. (TIF) Click here for additional data file.

[2] = tested on: T. cruzi epimastigotes (Dm28c strain); test: Flow cytometry analysis of the cell cycle (DNA content); format: cell-based, Trypanosoma cruzi; conditions: 48 h
Protocol: The cultures treated with CUR, DMC and BDMC at a concentration of 100 μM led to an accumulation of, respectively, 45%, 52% and 40% of cells in the G2 phase, while in the non-treated cells, G2 population was 20%. The ability to arrest cells in the G2/M phase is a characteristic of microtubule-interacting agents. For this reason, we used paclitaxel as positive control, a known microtubule drug that is active against Trypanosomatidae organisms. Consistently with its action on microtubules, paclitaxel promoted an accumulation of 57% of cells in the G2 phase (Fig 9). Thus, the effects of curcuminoids in the cell cycle can be explained, at least partially, by the disturbance of microtubules, in agreement with the mechanism of interaction with tubulin proposed by the electron microscopy experiments. The arising of sub-G1 peaks possibly correspond to apoptotic cells, what is more prominent in paclitaxel than in the curcuminoids treated cultures and the small sub-G1populations indicate that curcuminoids promote low apoptosis (Fig 9).
Fig 9 Percentage of cells in different phases of cell cycle. Cells were treated with CUR and DMC at 10, 50 and 100 μM concentrations and with 100 μM BDMC. Paclitaxel (20 μM) was employed as positive control, and DMSO 0.02% as negative control. Results are the mean of the triplicates with standard deviation represented by error bars. Statistical significance relative to control * P<0.05, ** P<0.01 and *** P<0.001. The data shown were obtained from three independent experiments.
Epismatigotes forms of T. cruzi (Dm28c strain) were grown at 28°C in BHI medium at a concentration of 2x10^6 cells.mL^-1 in 12-well culture plates (TPP™, Switzerland). Test compounds (CUR, DMC and BMDC) were added in triplicate at concentrations of 10, 50 and 100 μM. The controls used were the vehicle (DMSO 0.02%) and paclitaxel at 20 μM concentration. After 48 h of incubation, parasites were fixed in ethanol 70% for 30 min at -20°C. Next, cells were centrifuged at 200 rcf for 8 min and washed with PBS. Then, the samples were incubated for 10 min with a permeabilization buffer (0.2 M Na2HPO4 and 0.005% Triton-X, pH 7.8). Finally, cells were centrifuged at 200 rcf for 8 min and stained in a solution of 50 μg.mL^-1 propidium iodide (PI) and 0.2 μg.mL^-1 RNAse for 30 min at room temperature. DNA content was analyzed measuring PI fluorescence in a BD […] cytometer (Becton Dickinson Company, USA) at 488 nm excitation wavelength and 585/40 nm emission filter.
Supplementary file pone.0162926.s006.tif: S6 Fig Representative fluorescence histograms showing DNA content of cell-cycle phases (Sub-G1, G1, S and G2) of parasites (Dm28c strain). […]

MCF-7 tumor cells = tested on: MCF-7 tumor cells; parameters: method as in PMID 9714342; conditions: cited from earlier work
[3] = tested on: Sterol 14α-demethylase (CYP51); test: Sterol content (lanosterol/ergosterol ratio) of treated epimastigotes by RP-HPLC; format: cell-based, Trypanosoma cruzi
Protocol: Since the detachment of the flagellar membrane was reported in T. cruzi and L. amazonensis treated with sterol biosynthesis inhibitors, the results obtained in microscopy study led us to investigate the sterol content of epimastigotes treated with CUR. Sterol 14α-demethylase (CYP51) is the enzyme involved in conversion of lanosterol to ergosterol in the parasite cell by oxidative removal of the sterol 14α-methyl group, being a key step in the biosynthesis of cell membrane 14 α-demethylated sterols and consequently in the maintenance of the cell viability. Thus, this enzyme is a promising target for chemotherapy of Chagas disease. The method reported by Pinto and co-workers for steroid determination on fungi was adapted to T. cruzi epimastigotes. After saponification followed by n-hexane extraction of a T. cruzi epimastigote pellet cultivated in the presence of two different concentrations of CUR, the organic layer was concentrated and submitted to RP-HPLC analysis (as shown in S5 Fig). […] It seems that in both treatments the parasite membrane-cytoskeleton linkage has been compromised.
6x10^6 epimastigotes of T. cruzi (Dm28c strain) were grown for 7 days in 30mL of BHI culture medium at 26°C. Some cultures were treated with curcumin (CUR, 5 and 10 μM), posaconazole (0.05 and 0.1 μM). The cultures were submitted to centrifugation at 2100 rpm for 10 minutes. […]

[4] = tested on: Peritoneal macrophages (Mø); format: cell-based; conditions: murine peritoneal macrophages, 48 h, trypan blue
Protocol: (§1) The natural products have been subjected to a cytotoxicity assay on two distinct murine cell types. These compounds were tested upon macrophages (Mø), which are host cells during T. cruzi infection and splenocytes as lymphocytes are highly sensitive to external agents. The maintenance of cell viability at presence of the curcuminoids may indicate their low toxicity to mammalian cells. Peritoneal macrophages harvested from Balb/c mice were treated for 48 hours with concentrations of each test substance (S3 Fig). Splenocyte viability assays were performed in cells obtained from BALB/c mice and grown from a 5x10^5 cells.mL^-1 suspension (S4 Fig). For both cell types, viability was assessed by the trypan blue dye exclusion method, because colorimetric methods such as XTT were not suitable due to influence of the curcumin chromophoric properties. The results obtained on the evaluation of CUR, DMC, BDMC and CC against T. cruzi epimastigotes as well as the results of two host cell types treated with a 100 μM concentration of each compound are summarized in Table 1. […]
Supplementary file pone.0162926.s003.tif: S3 Fig Peritoneal macrophages obtained from BALB/c mice were cultured in triplicates at concentration of 5x10^5cells.mL^-1. […] Cell viability was assessed by exclusion method using trypan blue. […]

Splenocytes = format: cell-based; conditions: murine splenocytes, 48 h, trypan blue
Protocol: as §1, with “properties.” for “properties. The results obtained on the evaluation of CUR, DMC, BDMC and CC against T. cruzi epimastigotes as well as the results of two host cell types treated with a 100 μM concentration of each compound are summarized in Table 1.”
Splenic lymphocytes were obtained from male BALB/c mice and plated at 5x10^5 cells.mL^-1 in triplicate. […] Viability was evaluated by the exclusion method using trypan blue and the data shown is representative of three independent experiments.
Supplementary file pone.0162926.s004.tif: S4 Fig Lymphocytes were obtained from the spleen of BALB/c mice and cultivated at concentration of 5x10^5 cells.mL^-1. […] Cell viability was assessed by exclusion method using trypan blue. […]

[5] = Trypanosoma cruzi, 168 h, epimastigotes, Dm28c strain, 7 days

Compound: O=C(/C=C/c1ccc(O)cc1)CC(=O)/C=C/c1ccc(O)cc1 [BDMC, bisdemethoxycurcumin]
activity on proliferation/survival of epimastigotes (in words) ([1]; 7 days): active
IC50 [1, 5]: 45.3 µM
cells in the G2 phase ([2]; 100 μM, non-treated cells 20%): 40%

Compound: COc1cc(/C=C/C2=CC(=O)CC(c3ccc(O)c(OC)c3)O2)ccc1O (centres unmarked) [CC, cyclocurcumin]
activity on proliferation/survival of epimastigotes (in words) ([1]; 7 days): inactive
IC50 [1, 5]: > 100 µM
inhibition of MCF-7 tumor cells proliferation (MCF-7 tumor cells): inactive

Compound: COc1cc(/C=C/C(=O)CC(=O)/C=C/c2ccc(O)c(OC)c2)ccc1O [CUR, Curcumin]
activity on proliferation/survival of epimastigotes (in words) ([1]; 7 days): active
IC50 ([1]; Trypanosoma cruzi, 168 h): 10.1 µM
lanosterol/ergosterol ratio vs untreated control ([3]; CUR 5 and 10 μM, 7 days): no significant difference
cells in the G2 phase ([2]; 100 μM, non-treated cells 20%): 45%

Compound: CC(=O)O[C@H]1C(=O)[C@@]2(C)[C@H]([C@H](OC(=O)c3ccccc3)[C@]3(O)C[C@H](OC(=O)[C@H](O)[C@@H](NC(=O)c4ccccc4)c4ccccc4)C(C)=C1C3(C)C)[C@]1(OC(C)=O)CO[C@@H]1C[C@@H]2O [paclitaxel, reference compound]
cells in the G2 phase ([2]; 20 μM, positive control): 57%

lanosterol/ergosterol ratio vs untreated control ([3]; posaconazole 0.05 and 0.1 μM, positive control): significant increase
Compound: CC[C@@H]([C@H](C)O)n1ncn(-c2ccc(N3CCN(c4ccc(OC[C@@H]5CO[C@@](Cn6cncn6)(c6ccc(F)cc6F)C5)cc4)CC3)cc2)c1=O [posaconazole, reference compound]

Compound: demethoxycurcumin [DMC]
activity on proliferation/survival of epimastigotes (in words) ([1]; 7 days): active
IC50 ([1]; epimastigotes, Dm28c strain, 7 days): 11.1 µM
LD50 Mø [4]: > 100 µM
LD50 Splenocytes (Splenocytes): > 100 µM
cells in the G2 phase ([2]; 100 μM, non-treated cells 20%): 52%
